Results reported in patent publication US11820782B2, “Salt forms of amino pyrazine purine based selective kinase inhibitor” (FTG BIO LLC, priority 2018, dated 2023).

Legend:
[1] = test system: U-87 (giloblastoma, epithelial); experiment: Anti-proliferative effect, U-87; format: cell-based
Method: (§1) All in vitro experiments like protein binding, microsomal stability, cell cytotoxicity were performed as per study protocols of respective experiments.

[2] = 1 week stability of shortlisted salts at 40° C./75% RH, open; format: physicochemical
[3] = Microsomal stability, PHLM; format: in vitro ADME; conditions: pooled human liver microsomes
Method: as §1

[4] = test system: MDA-MB-231 (breast cancer); experiment: Anti-proliferative effect, MDA-MB-231; format: cell-based
Method: as §1

[5] = Microsomal stability, MLM; format: in vitro ADME; conditions: 3 μM (n = 3), mice liver microsomes
Method: as §1

[6] = Hygroscopicity (dynamic vapor sorption); format: physicochemical; conditions: normal room temperature / ambient conditions
Method: Sorption isotherms were obtained using a VTI-SA+-moisture sorption analyzer from TA instruments. The sample temperature was maintained at 25° C. by the instrument controls. The humidity was controlled by mixing the streams of dry and wet nitrogen, with a total flow rate of 200 mL/minute. The weight change of the sample as a function of % RH was constantly monitored by microbalance.
Typically, 5 to 20 mg of the sample was weighed under ambient conditions in a tared mesh stainless steel basket. The sample was loaded and unloaded at 40% RH and 25° C. A moisture sorption isotherm was performed as outlined. The standard isotherm was performed at 25° C. at 10% RH intervals over a 0 to 90% RH range. Sample was dried at 40° C. from ambient room conditions to 0% RH.

[7] = Intravenous and per oral pharmacokinetics in male Balb/c mice; format: in vivo
Method: The husbandry conditions were maintained as described in animal facility SOPs during the study period. Animals procured were quarantined for 7 days followed by acclimatization for 5 days. The study was carried out for two days. Male Balb/c mice of age 10-12 weeks (18-25 g) and male Sprague Dawley rats 8-10 weeks (220-280 g) were used. The food was with held for a period of 4-12 hr prior to dosing and returned to all animals 4h post dosing and water supplied ad libitum. The doses of FT1518 were as follows: Mice: 10 mg/kg intravenous (i.v) and 50 mg/kg oral (p.o); rat—5 mg/kg intravenous (i.v) and 10 mg/kg oral (p.o). The formulation used in i.v and p.o studies were 10% dimethylsulfoxide (DMSO)+30% polyethyleneglycol 400 (PEG400)+60% water and 0.5% methylcellulose (MC)+0.1% tween 80. Blood was collected at the predetermined time points in mice (cardiac puncture) and Jugular vein (rats) over a period of 24h in eppendorf tubes containing K2EDTA as anticoagulant. The plasma was isolated from the blood and stored at −80° C. until bioanalysis. Species: BALB/C mice Gender: Male Dose: IV (10 mg/kg), Single dose • PO (50 mg/kg), single dose Formulation: • IV—DMSO: PEG400:Water (10:30:60 v/v) • PO— 0.5% methylcellulose and 0.1% Tween 80 in water Sampling Time Points: • IV: 5 min, 30 min, 1 h, 2, 4, 8 and 24 h post dose • PO: 10 min, 30 min, 1 h, 2, 4, 8 and 24 h post dose. PK analysis: Phoenix software (Pharsight product). Noncompartmental Analysis (NCA) was used to estimate the PK parameters. FIG. 56 depicts a pharmacokinetic profile of FT-1518 base in mice. Table 31 summarizes PK parameters used in a pharmacokinetic profile with intravenous dose in mice and Table 32 summarizes PK parameters used in a pharmacokinetic profile with per oral dose in mice.

[8] = Qualitative (kinetic/visual) solubility in solvents/media; format: physicochemical
Method: 2 mg quantity of API was taken in glass vial and small portions of solvent was added with vortexing till the clear solution is obtained (at room temperature or heating up to 50-60° C.).
Weighed quantity of API was taken in glass vial and small portions of solvent was added with vortexing till the clear solution is obtained (at room temperature or heating up to 50-60° C.).

Mouse plasma = experiment: Plasma protein binding, mouse; format: in vitro ADME
Method: as §1

[9] = pH vs solubility study (RP-HPLC); format: physicochemical; conditions: listed as Oxalate salt
Method: In 2 mL volume of buffers (ranging from pH 1.2 to 7.4) and purified water, compound (either free base or esylate or oxalate) was added with increments until the compound doesn't dissolve further in the medium and compound remains undissolved or excess in the solution. The samples were kept for overnight at ambient room temperature to saturate/equilibrate. The dispersions were filtered through 0.45 μm PVDF or nylon membrane filters and the filtrates were analysed using RP-HPLC for determination of solubility of compounds in various buffers and purified water.

[10] = PO dose (50 mg/kg), single dose, male Balb/c mice, 50 mg/kg

## CCC(CC)n1cnc2c(-c3cnc(N)cn3)nc(N3CC4CCC(C3)O4)nc21 [FT-1518-Oxalate]
[1]
  IC50: > 10 µM
[2]; 2% w/v in water
  pH of 2% w/v aqueous dispersion/solution: 2.6
  state of 2% w/v aqueous dispersion/solution: dispersion
[2]; after 7 days at 40° C./75% RH, open, HPLC
  % purity: 97.04%
[2]; after 7 days at 40° C./75% RH, open, physical form vs initial
  XRD: Same as initial form
[3]; 3 μM (n = 3)
  Invitro T1/2, PHLM: >60 min
[3]
  stability in PHLM: ✓ FT1518, FT 1518-Esylate and FT1518-Oxalate was highly stable in PHLM and RLM
[4]
  IC50: > 10 µM
[5]
  Invitro T1/2, MLM: 46 min
[6]
  hygroscopicity: non-hygroscopic
[7]; PO 50 mg/kg, Balb/c male mice
  bioavailability in comparison to esylate salt and base: FT-1518-oxalate salt showed high bioavailability in comparison to esylate salt and base.
[7]; PO dose (50 mg/kg) vs IV 10 mg/kg, male Balb/c mice
  Bioavailability (% F): 76 % F
[7]; [10]
  AUC0-∞: 28876 ± 7762 ng·h/mL
  Cmax: 8444 ± 1473 ng/mL
  T1/2: 210 ± 114 min
  Tmax: 18 ± 12 min
[8]; Dimethyl sulphoxide
  Solubility: >100000 µg/mL
[8]; N-methyl pyrrolidone
  Solubility: >100000 µg/mL
[8]; dichloromethane
  Solubility: <1000 µg/mL
[8]; ethyl acetate
  Solubility: <1000 µg/mL
[8]; n-hexane
  Solubility: <1000 µg/mL
[8]; toluene
  Solubility: <1000 µg/mL
Mouse plasma
  plasma protein binding, mouse plasma: ✓ FT1518, FT1518-Esylate and FT1518-Oxalate showed moderate plasma protein binding in both mouse and human plasma
Mouse plasma; 10 μM (n = 4)
  % Bound, Mouse plasma: 91.79%
[9]; Water, overnight, ambient room temperature
  Solubility: 11030 µg/mL
[9]; pH 1.2 HCl
  Solubility: >52760 µg/mL
[9]; pH 3.0 Citrate buffer
  Solubility: 20250 µg/mL
[9]; pH 4.0 Acetate buffer
  Solubility: 1050 µg/mL
[9]; pH 5.0 Acetate buffer
  Solubility: 140 µg/mL
[9]; pH 6.8 Phosphate buffer
  Solubility: 5280 µg/mL
[9]; pH 7.4 Phosphate buffer
  Solubility: 760 µg/mL
